Usually chromatographic logP stands for lipophilicity estimated from chromatographic retention. Broadly, the logP is the decadic logarithm of the partition coefficient of the neutral form, usually between octanol and water. Lower therefore signals a more hydrophilic compound.

Here are results for 38 compounds from patent publication US6589974B1, “Pyrazolyl benzyl ether derivatives containing a fluoromethoxyimino group and use thereof as pesticides” (Bayer Aktiengesellschaft, priority 1999, dated 2003).

The structures appear in SMILES notation.

System in one data set: not listed separately
As to the kind of experiment: logP determination by HPLC (EEC Directive 79/831 Annex V.A8). In kind it is physicochemical.
Conditions: not given
As to the method: The logP values were determined in accordance with EEC Directive 79/831 Annex V.A8 by HPLC (gradient method, acetonitrile/0.1% aqueous phosphoric acid).
Turning to `CNC(=O)C(=NOCF)c1ccccc1COc1ccn(-c2ccc(Cl)cc2)n1` [Example 2, 2-[2-({[1-(4-chlorophenyl)-1H-pyrazol-3-yl]oxy}methyl)phenyl]-2-[(fluoromethoxy)imino]-N-methylacetamide], the chromatographic logP is 3.3. On the same count and under the same terms, then `COC(=O)C(=NOCF)c1ccccc1COc1ccn(-c2ccc(Cl)cc2)n1` [Example 1, methyl 2-[2-({[1-(4-chlorophenyl)-1H-pyrazol-3-yl]oxy}methyl)phenyl]-2-[(fluoromethoxy)imino]acetate], with 3.86.

Still in this data set, the particulars now being: HPLC, gradient method, acetonitrile/0.1% aqueous phosphoric acid.
`CNC(=O)C(=NOCF)c1ccccc1OCc1ccn(-c2cccc(Br)c2)n1` [Example 5] came in with a log partition coefficient (logP) of 3.39. The same measure, in the same setting: as for `COC(=O)C(=NOCF)c1ccccc1OCc1ccn(-c2ccc(C(C)(C)C)cc2)n1` [Example 21], the figure is 4.63; as for `CNC(=O)C(=NOCF)c1ccccc1OCc1ccn(-c2cccc(Cl)c2)n1` [Example 43], 3.3. Still for that read-out and setting: as for `COC(=O)C(=NOCF)c1ccccc1OCc1ccn(-c2cc(Cl)ccc2Cl)n1` [Example 29], the figure is 4.5; as for `COC(=O)C(=NOCF)c1ccccc1OCc1ccn(-c2ccccc2Cl)n1` [Example 8], 3.53. As to `CNC(=O)C(=NOCF)c1ccccc1OCc1ccn(-c2ccc(C(C)(C)C)cc2)n1` [Example 23], the lipophilicity (logP) worked out at 4.04. The same measure, in the same setting: then `CNC(=O)C(=NOCF)c1ccccc1OCc1ccn(-c2cccc(Cl)c2Cl)n1` [Example 34], with 3.31; and `CNC(=O)C(=NOCF)c1ccccc1OCc1ccn(-c2ccc(C(C)C)cc2)n1` [Example 38], with 3.83. Same read-out and setting: as for `COC(=O)C(=NOCF)c1ccccc1OCc1ccn(-c2ccc(C(C)C)cc2)n1` [Example 4], the figure is 4.38. On to `COC(=O)C(=NOCF)c1ccccc1OCc1ccn(-c2cccc(Cl)c2Cl)n1` [Example 27], for which the logP stood at 3.9. Still for that read-out and setting: then `COC(=O)C(=NOCF)c1ccccc1OCc1ccn(-c2ccc(C#N)cc2)n1` [Example 9], with 3.18; and `CNC(=O)C(=NOCF)c1ccccc1OCc1ccn(-c2ccc(C#N)cc2)n1` [Example 42], with 2.64; and `CNC(=O)C(=NOCF)c1ccccc1OCc1ccn(-c2ccc(Cl)cc2Cl)n1` [Example 19], with 3.5. On the same count and under the same terms, then `CNC(=O)C(=NOCF)c1ccccc1OCc1ccn(-c2ccccc2F)n1` [Example 32], with 2.93; and `COC(=O)C(=NOCF)c1ccccc1OCc1ccn(-c2ccc(C)cc2)n1` [Example 10], with 3.74. On the same count and under the same terms, then `CNC(=O)C(=NOCF)c1ccccc1OCc1ccn(-c2ccc(Br)cc2)n1` [Example 6], with 3.4.

The compound `CNC(=O)C(=NOCF)c1ccccc1OCc1ccn(-c2cc(Cl)ccc2Cl)n1` [Example 36] came in with a log partition coefficient (logP) of 3.43. For the compound `CNC(=O)C(=NOCF)c1ccccc1OCc1ccn(-c2ccc(C)cc2)n1` [Example 41], the logP amounted to 3.14.

With `COC(=O)C(=NOCF)c1ccccc1OCc1ccn(-c2cc(Cl)cc(Cl)c2)n1` [Example 15], the lipophilicity (logP) came to 4.52.

For `CNC(=O)C(=NOCF)c1ccccc1OCc1ccn(-c2ccccc2Cl)n1` [Example 22], the logP came to 2.96. Same read-out and setting: then `COC(=O)C(=NOCF)c1ccccc1OCc1ccn(-c2ccccc2)n1` [Example 14], with 3.4.

Take `COC(=O)C(=NOCF)c1ccccc1OCc1ccn(-c2ccc(F)cc2F)n1` [Example 26]: the logP turned out to be 3.52. `CNC(=O)C(=NOCF)c1ccccc1OCc1ccn(-c2cc(Cl)cc(Cl)c2)n1` [Example 7] gave a logP of 3.93. In turn, `COC(=O)C(=NOCF)c1ccccc1OCc1ccn(-c2ccccc2F)n1` [Example 25] returned a log partition coefficient (logP) of 3.51. The compound `COC(=O)C(=NOCF)c1ccccc1OCc1ccn(-c2cccc(C)c2)n1` [Example 30] yielded a log partition coefficient (logP) of 3.73. Same read-out and setting: as for `CNC(=O)C(=NOCF)c1ccccc1OCc1ccn(-c2ccc(F)cc2)n1` [Example 3], the figure is 2.91; as for `CNC(=O)C(=NOCF)c1ccccc1OCc1ccn(-c2ccc(F)cc2F)n1` [Example 33], 3.02; as for `CNC(=O)C(=NOCF)c1ccccc1OCc1ccn(-c2cccc(C)c2)n1` [Example 31], 3.15. Same read-out and setting: as for `COC(=O)C(=NOCF)c1ccccc1OCc1ccn(-c2ccccc2Br)n1` [Example 12], the figure is 3.54; as for `COC(=O)C(=NOCF)c1ccccc1OCc1ccn(-c2ccc(C)c(C)c2)n1` [Example 28], 3.92. For `COC(=O)C(=NOCF)c1ccccc1OCc1ccn(-c2cccc(Br)c2)n1` [Example 16], the logP was 3.98. Take `COC(=O)C(=NOCF)c1ccccc1OCc1ccn(-c2ccc(Br)cc2)n1` [Example 13]: the log partition coefficient (logP) turned out to be 3.98. Same read-out and setting: as for `COC(=O)C(=NOCF)c1ccccc1OCc1ccn(-c2ccc(F)cc2)n1` [Example 17], the figure is 3.47; as for `COC(=O)C(=NOCF)c1ccccc1OCc1ccn(-c2ccc(Cl)cc2Cl)n1` [Example 11], 4.09. Still for that read-out and setting: then `COC(=O)C(=NOCF)c1ccccc1OCc1ccn(-c2cccc(Cl)c2)n1` [Example 37], with 3.88.

`CNC(=O)C(=NOCF)c1ccccc1OCc1ccn(-c2ccccc2)n1` [Example 18]: the lipophilicity (logP) is 2.83.

For another data set, the system named is Erysiphe graminis f.sp. hordei. The data set is described as follows: Erysiphe Test (barley)/protective. The note with it: protective, application rate 250 g/ha, evaluation 7 days after inoculation. In kind it is in vivo. As to the method: Erysiphe Test (barley)/protective Solvent: 25 parts by weight of N,N-dimethylacetamide Emulsifier: 0.6 part by weight of alkylaryl polyglycol ether To produce a suitable preparation of active compound, 1 part by weight of active compound is mixed with the stated amounts of solvent and emulsifier, and the concentrate is diluted with water to the desired concentration. To test for protective activity, young plants are sprayed with the preparation of active compound at the stated application rate. After the spray coating has dried on, the plants are dusted with spores of Erysiphe graminis f.sp. hordei. The plants are placed in a greenhouse at a temperature of about 20° C. and a relative atmospheric humidity of about 80% to promote the development of mildew pustules.
Compound `CNC(=O)C(=NOCF)c1ccccc1COc1ccn(-c2ccc(Cl)cc2)n1` [Example 2, 2-[2-({[1-(4-chlorophenyl)-1H-pyrazol-3-yl]oxy}methyl)phenyl]-2-[(fluoromethoxy)imino]-N-methylacetamide] yielded an efficacy of at least 98%.

Another data set has as its system Puccinia recondita. As to the kind of experiment: Puccinia Test (wheat)/protective. The following applies: protective, application rate 250 g/ha, evaluation 10 days after inoculation. Type of data set: in vivo. The procedure:
Puccinia Test (wheat)/protective Solvent: 25 parts by weight of N,N-dimethylacetamide Emulsifier: 0.6 part by weight of alkylaryl polyglycol ether To produce a suitable preparation of active compound, 1 part by weight of active compound is mixed with the stated amounts of solvent and emulsifier, and the concentrate is diluted with water to the desired concentration. To test for protective activity, young plants are sprayed with the preparation of active compound at the stated application rate. After the spray coating has dried on, the plants are sprayed with a conidia suspension of Puccinia recondita. The plants remain in an incubation cabin at 20° C. and 100% relative atmospheric humidity for 48 hours. The plants are then placed in a greenhouse at a temperature of about 20° C. and a relative atmospheric humidity of 80% to promote the development of rust pustules.
In turn, `COC(=O)C(=NOCF)c1ccccc1COc1ccn(-c2ccc(Cl)cc2)n1` [Example 1, methyl 2-[2-({[1-(4-chlorophenyl)-1H-pyrazol-3-yl]oxy}methyl)phenyl]-2-[(fluoromethoxy)imino]acetate] yielded an efficacy of at least 98%.

A further data set relates to Puccinia recondita. As to the kind of experiment: Puccinia Test (wheat)/curative. Type of data set: in vivo. The note with it: curative, application rate 250 g/ha, evaluation 10 days after inoculation. The procedure: Puccinia Test (wheat)/curative Solvent: 25 parts by weight of N,N-dimethylacetamide Emulsifier: 0.6 part by weight of alkylaryl polyglycol ether To produce a suitable preparation of active compound, 1 part by weight of active compound is mixed with the stated amounts of solvent and emulsifier, and the concentrate is diluted with water to the desired concentration. To test for curative activity, young plants are sprayed with a conidia suspension of Puccinia recondita. The plants remain in an incubation cabin at 20° C. and 100% relative atmospheric humidity for 48 hours. The plants are then sprayed with the preparation of active compound at the stated application rate. The plants are placed in a greenhouse at a temperature of about 20° C. and a relative atmospheric humidity of about 80% to promote the development of rust pustules.
On to `CNC(=O)C(=NOCF)c1ccccc1COc1ccn(-c2ccc(Cl)cc2)n1` [Example 2, 2-[2-({[1-(4-chlorophenyl)-1H-pyrazol-3-yl]oxy}methyl)phenyl]-2-[(fluoromethoxy)imino]-N-methylacetamide], for which the efficacy is on record as at least 98%.

For another data set, the system named is larvae of the mustard beetle (Phaedon cochleariae). The data set is described as follows: Phaedon Larvae Test. Type of data set: in vivo. The following applies: cabbage leaves (Brassica oleracea) dipped, concentration of active compound 1000 ppm. As to the method:
Phaedon Larvae Test Solvent: 30 parts by weight of acetone Emulsifier: 1 part by weight of alkylaryl polyglycol ether To produce a suitable preparation of active compound, 1 part by weight of active compound is mixed with the stated amounts of solvent and emulsifier, and the concentrate is diluted with emulsifier-containing water to the desired concentration. Cabbage leaves (Brassica oleracea) are treated by being dipped into the preparation of active compound of the desired concentration and are populated with larvae of the mustard beetle (Phaedon cochleariae) while the leaves are still moist. After the desired period of time, the kill in % is determined. 100% means that all beetle larvae have been killed; 0% means that none of the beetle larvae have been killed.
For the compound `COC(=O)C(=NOCF)c1ccccc1COc1ccn(-c2ccc(Cl)cc2)n1` [Example 1, methyl 2-[2-({[1-(4-chlorophenyl)-1H-pyrazol-3-yl]oxy}methyl)phenyl]-2-[(fluoromethoxy)imino]acetate], the kill rate is 100%.

Another data set concerns green peach aphid (Myzus persicae). The data set is described as follows: Myzus Test. Type of data set: in vivo. The note with it: broad bean seedlings (Vicia faba) dipped, concentration of active compound 1000 ppm. The procedure:
Myzus Test Solvent: 30 parts by weight of acetone Emulsifier: 1 part by weight of alkylaryl polyglycol ether To produce a suitable preparation of active compound, 1 part by weight of active compound is mixed with the stated amounts of solvent and emulsifier, […], and the concentrate is diluted with emulsifier-containing water to the desired concentrations. Broad bean seedlings (Vicia faba) infested by the green peach aphid (Myzus persicae) are dipped into a preparation of active compound of the desired concentration and placed in a dish made of plastic. After the desired period of time, the kill in % is determined. 100% means that all animals have been killed; 0% means that none of the animals have been killed.
Regarding `COC(=O)C(=NOCF)c1ccccc1COc1ccn(-c2ccc(Cl)cc2)n1` [Example 1, methyl 2-[2-({[1-(4-chlorophenyl)-1H-pyrazol-3-yl]oxy}methyl)phenyl]-2-[(fluoromethoxy)imino]acetate], the kill rate is 95%.
